From patent US8084457B2, “Pharmaceutically active 4,6-disubstituted aminopyrimidine derivatives as modulators of protein kinases” (Lead Discovery Center GmbH, priority 2003, dated 2011)

Legend:
PDGFR = experiment: General kinase assay, selectivity panel: PDGFR; assay type: biochemical; conditions: 10 μM of compound, in comparison to DMSO (0% inhibition)
Procedure: (§1) The inhibitory effect of compounds according to the present invention on the activity of protein kinases, depicted in Table 1, can be measured according to the following protocol:
(§2) Pipettinq Sequence: • 1) Add 10 μl 4 fold concentrated Substrate+4 fold concentrated ATP in 3 fold concentrated Reaction Buffer to each well of Assay Plate • 2) Add 10 μl 4 fold concentrated inhibitor in 4% DMSO in H2O to each well except to C− and C+ wells • 3) Add 10 μl 4% DMSO in H2O to C− and C+ wells • 4) Add 10 μl 500 mM EDTA in H2O to − wells • 5) Add 10 μl 50 μCi/ml Adenosine 5′-[γ-^33P]triphosphate in H2O to each well • 6) Add 10 μl 4 fold concentrated kinase in Reaction Buffer to each well • 7) Incubate 1 hr at room temperature • 8) Add 10 μl 50 mM EDTA in H2O to each well except to C− wells • 9) Prepare MAPH plates by adding 200 μl 0.75% H3PO4 to each well • 10) Exhaust 0.75% H3PO4 using Millipore vacuum station • 11) Add 60 μl 0.75% H3PO4 to each well of MAPH Filter Plate • 12) Transfer 30 μl sample per well from Assay Plate to corresponding well of MAPH Filter Plate • 13) Incubate 30 min at room temperature • 14) Wash each well of MAPH Filter Plates 3× with 200 μl 0.75% H3PO4 using Millipore vacuum station. • 15) Add 20 μl Scintillation Liquid to each well of MAPH Filter Plate • 16) Seal MAPH Filter Plate • 17) Store MAPH Filter Plate 30 min in darkness • 18) Quantify radioactivity
(§3) The activity of these protein kinases is depicted as % inhibition in the presence of 10 μM of compound in comparison to DMSO (0% inhibition).

c-Kit = c-Kit (Homo sapiens, UniProt P10721); experiment: General kinase assay, selectivity panel: c-Kit; assay type: biochemical; conditions: 10 μM of compound, in comparison to DMSO (0% inhibition)
Sequence of c-Kit (P10721 26-976): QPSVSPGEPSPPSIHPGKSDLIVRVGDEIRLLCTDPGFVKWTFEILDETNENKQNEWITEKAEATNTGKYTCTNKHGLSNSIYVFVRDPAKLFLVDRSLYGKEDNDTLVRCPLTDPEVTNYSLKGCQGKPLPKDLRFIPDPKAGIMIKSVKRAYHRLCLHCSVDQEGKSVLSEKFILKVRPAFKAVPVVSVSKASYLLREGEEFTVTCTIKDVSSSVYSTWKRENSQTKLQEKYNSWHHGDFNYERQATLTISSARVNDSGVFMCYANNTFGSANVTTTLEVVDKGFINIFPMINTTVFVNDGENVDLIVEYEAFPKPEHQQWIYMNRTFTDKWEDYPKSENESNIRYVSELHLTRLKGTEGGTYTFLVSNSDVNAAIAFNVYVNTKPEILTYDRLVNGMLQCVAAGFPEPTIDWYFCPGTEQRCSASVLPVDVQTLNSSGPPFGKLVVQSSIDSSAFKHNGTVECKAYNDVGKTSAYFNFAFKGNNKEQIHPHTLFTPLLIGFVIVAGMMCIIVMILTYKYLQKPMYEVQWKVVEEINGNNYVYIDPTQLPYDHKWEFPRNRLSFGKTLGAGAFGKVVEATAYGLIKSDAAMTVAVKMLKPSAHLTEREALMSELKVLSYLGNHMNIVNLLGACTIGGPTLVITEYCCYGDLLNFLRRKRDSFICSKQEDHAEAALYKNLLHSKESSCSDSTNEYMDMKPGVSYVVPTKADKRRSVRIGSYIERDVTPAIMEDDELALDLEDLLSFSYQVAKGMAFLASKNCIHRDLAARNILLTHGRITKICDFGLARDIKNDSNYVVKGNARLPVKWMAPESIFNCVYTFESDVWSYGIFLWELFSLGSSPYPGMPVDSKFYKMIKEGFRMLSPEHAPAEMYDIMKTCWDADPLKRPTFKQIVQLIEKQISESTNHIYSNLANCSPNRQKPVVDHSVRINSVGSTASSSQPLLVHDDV
Procedure: as §1, §2, §3

Abl = Abl (Homo sapiens, UniProt P00519); experiment: General kinase assay, selectivity panel: Abl; assay type: biochemical; conditions: 10 μM of compound, in comparison to DMSO (0% inhibition)
Sequence of Abl (P00519 whole entry, species assumed): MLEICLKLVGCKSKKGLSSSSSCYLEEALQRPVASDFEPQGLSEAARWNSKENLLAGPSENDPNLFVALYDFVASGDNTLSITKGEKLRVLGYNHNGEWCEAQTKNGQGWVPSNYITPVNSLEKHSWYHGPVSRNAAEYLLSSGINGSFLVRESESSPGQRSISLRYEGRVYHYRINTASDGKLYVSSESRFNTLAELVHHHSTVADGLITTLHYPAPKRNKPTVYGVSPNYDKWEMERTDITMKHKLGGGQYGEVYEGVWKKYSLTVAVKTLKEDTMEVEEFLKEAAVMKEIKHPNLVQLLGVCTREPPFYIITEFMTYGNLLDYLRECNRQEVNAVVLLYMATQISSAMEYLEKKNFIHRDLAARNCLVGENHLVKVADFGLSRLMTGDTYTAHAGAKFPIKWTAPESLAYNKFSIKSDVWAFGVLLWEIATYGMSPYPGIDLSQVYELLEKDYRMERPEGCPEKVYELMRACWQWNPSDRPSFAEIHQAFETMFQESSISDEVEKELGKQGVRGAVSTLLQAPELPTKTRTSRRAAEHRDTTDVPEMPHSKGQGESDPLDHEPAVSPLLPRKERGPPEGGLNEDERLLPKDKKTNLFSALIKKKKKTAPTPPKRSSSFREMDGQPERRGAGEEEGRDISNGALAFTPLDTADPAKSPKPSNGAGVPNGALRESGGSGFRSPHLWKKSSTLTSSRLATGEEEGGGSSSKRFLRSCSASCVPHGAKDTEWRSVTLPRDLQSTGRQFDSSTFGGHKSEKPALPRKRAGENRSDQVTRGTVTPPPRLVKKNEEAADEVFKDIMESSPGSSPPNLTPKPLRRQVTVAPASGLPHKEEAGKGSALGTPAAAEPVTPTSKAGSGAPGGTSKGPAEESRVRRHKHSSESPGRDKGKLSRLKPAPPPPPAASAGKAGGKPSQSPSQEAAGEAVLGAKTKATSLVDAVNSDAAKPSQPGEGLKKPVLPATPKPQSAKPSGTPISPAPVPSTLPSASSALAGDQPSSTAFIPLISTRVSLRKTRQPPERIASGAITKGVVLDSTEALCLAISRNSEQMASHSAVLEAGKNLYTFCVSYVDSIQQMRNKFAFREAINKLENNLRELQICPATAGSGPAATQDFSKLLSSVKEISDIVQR
Procedure: as §1, §2, §3

EGFR = EGFR (Homo sapiens, UniProt P00533); experiment: General kinase assay, selectivity panel: EGFR; assay type: biochemical; conditions: 10 μM of compound, in comparison to DMSO (0% inhibition)
Sequence of EGFR (P00533 25-1210, species assumed): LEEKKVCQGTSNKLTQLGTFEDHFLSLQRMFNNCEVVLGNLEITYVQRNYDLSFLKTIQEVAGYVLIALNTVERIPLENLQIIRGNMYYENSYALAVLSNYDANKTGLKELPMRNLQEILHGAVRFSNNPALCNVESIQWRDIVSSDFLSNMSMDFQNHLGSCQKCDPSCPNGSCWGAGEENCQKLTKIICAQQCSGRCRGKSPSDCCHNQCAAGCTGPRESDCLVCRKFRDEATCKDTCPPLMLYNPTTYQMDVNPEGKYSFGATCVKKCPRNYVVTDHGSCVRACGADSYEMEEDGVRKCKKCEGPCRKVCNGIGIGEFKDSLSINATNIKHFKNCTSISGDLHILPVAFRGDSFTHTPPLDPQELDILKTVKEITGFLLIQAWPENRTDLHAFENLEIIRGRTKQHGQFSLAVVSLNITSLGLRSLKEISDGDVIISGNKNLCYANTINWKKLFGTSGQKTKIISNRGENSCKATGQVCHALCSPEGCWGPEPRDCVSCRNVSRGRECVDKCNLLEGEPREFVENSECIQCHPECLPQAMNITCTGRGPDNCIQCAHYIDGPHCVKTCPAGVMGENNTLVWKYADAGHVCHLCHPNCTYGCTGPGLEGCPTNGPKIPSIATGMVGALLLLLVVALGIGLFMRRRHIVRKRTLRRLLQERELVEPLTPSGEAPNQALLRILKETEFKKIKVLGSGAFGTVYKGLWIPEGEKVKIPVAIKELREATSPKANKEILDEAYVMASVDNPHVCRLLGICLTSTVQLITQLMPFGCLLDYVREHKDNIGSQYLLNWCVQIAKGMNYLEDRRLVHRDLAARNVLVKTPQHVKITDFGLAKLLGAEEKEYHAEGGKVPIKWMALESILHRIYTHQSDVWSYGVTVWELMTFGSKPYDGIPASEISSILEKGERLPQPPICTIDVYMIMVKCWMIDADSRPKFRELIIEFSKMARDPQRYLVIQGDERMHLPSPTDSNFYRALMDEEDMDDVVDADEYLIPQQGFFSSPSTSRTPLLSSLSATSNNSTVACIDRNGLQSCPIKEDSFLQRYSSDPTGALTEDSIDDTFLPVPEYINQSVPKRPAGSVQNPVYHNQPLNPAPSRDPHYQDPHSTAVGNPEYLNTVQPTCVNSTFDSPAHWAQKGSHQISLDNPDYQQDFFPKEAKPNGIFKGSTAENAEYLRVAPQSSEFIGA
Procedure: as §1, §2, §3

RSK1 = RSK1 (Homo sapiens, UniProt Q15418); experiment: General kinase assay, selectivity panel: RSK1; assay type: biochemical; conditions: 10 μM of compound, in comparison to DMSO (0% inhibition)
Procedure: as §1, §2, §3

cMet = cMet (Homo sapiens, UniProt P08581); experiment: General kinase assay, selectivity panel: cMet; assay type: biochemical; conditions: 10 μM of compound, in comparison to DMSO (0% inhibition)
Procedure: as §1, §2, §3

p56 Lck = p56 Lck (Homo sapiens, UniProt P06239); experiment: General kinase assay, selectivity panel: p56 Lck; assay type: biochemical; conditions: 10 μM of compound, in comparison to DMSO (0% inhibition)
Sequence of p56 Lck (P06239 whole entry): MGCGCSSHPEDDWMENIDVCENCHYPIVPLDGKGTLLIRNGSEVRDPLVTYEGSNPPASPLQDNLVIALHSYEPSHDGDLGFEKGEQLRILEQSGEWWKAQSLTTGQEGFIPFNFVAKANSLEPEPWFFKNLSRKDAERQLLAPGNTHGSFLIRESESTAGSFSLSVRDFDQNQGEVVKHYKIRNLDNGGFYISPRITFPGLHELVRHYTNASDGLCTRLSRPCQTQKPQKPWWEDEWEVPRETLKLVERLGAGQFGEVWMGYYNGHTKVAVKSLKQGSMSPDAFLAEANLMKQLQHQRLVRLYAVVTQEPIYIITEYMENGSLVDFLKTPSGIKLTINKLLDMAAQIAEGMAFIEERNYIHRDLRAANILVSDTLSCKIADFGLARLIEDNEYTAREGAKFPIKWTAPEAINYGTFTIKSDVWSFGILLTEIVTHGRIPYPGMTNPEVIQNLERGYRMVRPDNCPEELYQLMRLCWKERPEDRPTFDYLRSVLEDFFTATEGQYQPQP
Procedure: as §1, §2, §3

CDK1 = CDK1 (Homo sapiens, UniProt P06493); experiment: General kinase assay, selectivity panel: CDK1; assay type: biochemical; conditions: 10 μM of compound, in comparison to DMSO (0% inhibition)
Procedure: as §1, §2, §3

HBV = HBV replication assay in HepG2-2.2.15 cells; assay type: cell-based
Procedure: To test anti—HBV-activity of compounds the HBV-producing cell line HepG2-2.2.15 (M. A. Sells, PNAS 1987, 84, 1005-1009) was used. 1.0×10^4 cells were seeded in 96-well microtiter plates in DMEM medium supplemented with 10% FCS. After incubation at 37° C. in 5% CO2 atmosphere for 24 hours the medium was replaced with fresh medium containing the appropriately diluted compound. 3 days later medium was replaced by freshly prepared inhibitor-containing medium and the cells were incubated for further 3 days. Subsequently 200 μl lysis buffer (50 mM Tris-Cl 7.5; 1 mM EDTA 8.0; 0.5% NP40) per well was added. To remove cell debris and […], lysate was centrifuged (15000 rpm, 10 min, 4° C.). Cellular and viral RNA was removed by addition of 2 μl of RNase. 100 μl of the samples were spotted onto an uncharged nylon membrane pre-wetted with PBS (phosphate-buffered saline) using a 96 well-blotting chamber (MINIfold Dot-Blot, Schleicher&Schüll). After further washing with 200 μl PBS per well the membrane was treated twice with 0.5 M NaOH, 1.5 M NaCl (2 min) and 4 times with 0.5 M Tris 7.5, 3 M NaCl (1 min). The nucleic acids were fixed by UV-treatment and used for hybridisabon with a radioactive HBV-fragment prepared from the overgenome-length HBV-plasmid pT-HBV1.3 (L. G. Guidotti et al., Journal of Virology 1995., 69(10), 6158-6169).
The fixed membrane was pre-hybridized in a standard hybridisation buffer (50% formamide, 5×SSPE, 10×Denhards, 1% SDS, 100 μg/ml salmon sperm DNA) for at least 3 hours at 42° C. and hybridised overnight against the labelled HBV-fragment. The preparation of the HBV-fragment with the “Random primers DNA labelling system” (Invitrogen) was done according to the manufacturer's instructions. Hybridized filter were washed at room temperature with 2×SSC, at 62° C. with 2×SSC, 0.5% SDS and at 62° C. with 0.5×SSC, 0.5% SDS. Each washing step was carried out twice. The intensity of the HBV-DNA was quantified using a phosphoimager (Fuji). […] Absorbance was monitored at 570 nm and 600 nm wavelength.

GSK-3β = GSK-3β (Homo sapiens, UniProt P49841); experiment: General kinase assay, selectivity panel: GSK-3β; assay type: biochemical; conditions: 10 μM of compound, in comparison to DMSO (0% inhibition)
Sequence of GSK-3β (P49841 whole entry, species assumed): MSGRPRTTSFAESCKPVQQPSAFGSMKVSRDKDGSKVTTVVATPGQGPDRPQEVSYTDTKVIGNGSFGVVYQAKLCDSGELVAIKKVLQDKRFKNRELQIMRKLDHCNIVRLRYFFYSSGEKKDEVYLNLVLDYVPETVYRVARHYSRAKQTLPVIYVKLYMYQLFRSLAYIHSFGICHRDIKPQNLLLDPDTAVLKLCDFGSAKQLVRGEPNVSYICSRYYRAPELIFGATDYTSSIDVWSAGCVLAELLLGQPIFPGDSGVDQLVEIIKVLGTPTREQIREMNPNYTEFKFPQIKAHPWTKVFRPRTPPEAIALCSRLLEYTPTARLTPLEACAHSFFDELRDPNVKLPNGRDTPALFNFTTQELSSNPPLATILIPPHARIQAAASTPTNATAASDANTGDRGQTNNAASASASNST
Procedure: as §1, §2, §3

HCMV strain AD169 = experiment: HCMV replication assay in HFF cells (EGFP); assay type: cell-based; conditions: strain AD 169 in HFF cells
Procedure: Human foreskin fibroblasts (HFF) cell culture were grown in DMEM containing 10% FCS. For HCMV-replication assays, HFF cells were infected with HCMV strain AD169 producing EGFP (HCMV AD169-GFP; 27). 1 h post infection, medium was changed with medium containing the indicated compound concentration (0.3 μM, 1 μM and 3 μM, respectively) After incubation of 7 days cells were lysed (in 25 mM Tris, pH 7.5, 2 mM DTT, 1% Triton X-100 and 10% glycerol) and analysed for EGFP content in a Wallac Victor fluorescence detector.

[1] = system: NFκB-dependent transcriptional activity; experiment: NFκB-dependent transcriptional activity (NIH 3T3 75E 11/300D8 cell line); assay type: cell-based; conditions: for EC50: titration
Excerpt: NFκB-dependent Transcriptional Activity:
The used NIH 3T3 75E 11/300D8 cell line is described elsewhere (J. Eickhoff et al., Journal of Biological Chemistry, 2004, 279(10), 9642-9652).
It is known, that CDK9 regulates the NFκB-dependent transitional activity. With Compound 4, Compound 7 and Compound 30 studies were done, to evaluate their effect on NFκB-dependent transcriptional activity.

c-Src = c-Src (Homo sapiens, UniProt P12931); experiment: General kinase assay, selectivity panel: c-Src; assay type: biochemical; conditions: 10 μM of compound, in comparison to DMSO (0% inhibition)
Sequence of c-Src (P12931 whole entry, species assumed): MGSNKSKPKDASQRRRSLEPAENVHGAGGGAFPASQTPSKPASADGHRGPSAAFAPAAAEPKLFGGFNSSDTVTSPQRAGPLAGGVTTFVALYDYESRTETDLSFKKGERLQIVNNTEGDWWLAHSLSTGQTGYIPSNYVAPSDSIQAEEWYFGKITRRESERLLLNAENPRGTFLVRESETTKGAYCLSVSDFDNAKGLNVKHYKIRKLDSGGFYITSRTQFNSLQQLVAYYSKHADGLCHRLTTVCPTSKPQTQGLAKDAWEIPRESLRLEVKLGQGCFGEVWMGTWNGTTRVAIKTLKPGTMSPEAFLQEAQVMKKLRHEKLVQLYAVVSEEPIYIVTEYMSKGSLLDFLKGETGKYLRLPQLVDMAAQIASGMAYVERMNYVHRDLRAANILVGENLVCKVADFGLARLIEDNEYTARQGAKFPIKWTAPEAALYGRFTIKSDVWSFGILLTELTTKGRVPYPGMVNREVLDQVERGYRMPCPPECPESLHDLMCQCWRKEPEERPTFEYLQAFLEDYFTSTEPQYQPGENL
Procedure: as §1, §2, §3

[2] = system: CDK9-dependent phosphorylation of RNA-polymerase II; experiment: Determination of RNA polymerase II C-terminal domain phosphorylation (western blot, PM1 cells); assay type: cell-based
Procedure: Determination of RNA Polymerase II C-terminal Domain Phosphorylation: The phosphorylation status of RNA polymerase II C-terminal domain was determined by western blot techniques. PM1 cells were seeded in 6-well plates at a density of 5×10^5 per well. After over night incubation cells were treated with compound as indicated in the respective experiments. Cells were pelleted and lysed with 300 μL 3× Laemmli buffer followed by 30 min denaturing at 65° C. After separation of equal lysate volumes by SDS-PAGE the proteins were transferred to nitrocellulose membranes (Schleicher&Schuell) and probed with anti-[…] (H5), anti-[…] (H14) or RNA Poll II-antibodies purchased from Eurogentec and Santa Cruz, respectively. The amount of reactive protein was visualized by ECL detection methods (Amersham). In order to see, if the compounds according to the general formula (I) do have the intrinsic capacity to penetrate cells and act against cellular target proteins, especially CDK9, the effect of Compound 30 on CDK9-dependent phosphorylation of RNA-polymerase II was investigated.

Row | Structure (SMILES) | PDGFR (% inhibition) (PDGFR) | c-Kit (% inhibition) (c-Kit) | Abl (% inhibition) (Abl) | EGFR (% inhibition) (EGFR) | RSK1 (% inhibition) (RSK1) | cMet (% inhibition) (cMet) | p56 Lck (% inhibition) (p56 Lck) | CDK1 (% inhibition) (CDK1) | HBV replication (in words) (HBV) | GSK-3β (% inhibition) (GSK-3β) | HCMV replication (in words) (HCMV strain AD169) | inhibition of NFκB (in words, compared with Compound 30) [1] | EC50 [1] [µM] | c-Src (% inhibition) (c-Src) | TNF-α stimulated NFκB-dependent promoter activity ([1]; 1 μM final concentration, TNF-α stimulated) | NFκB-dependent promoter activity under non-stimulated conditions ([1]; non-stimulated conditions) | molecular weight of RNA polymerase II [2] | serine 2 phosphorylation of RNA polymerase II ([2]; anti-SER2 (H5)) | serine 5 phosphorylation of RNA polymerase II ([2]; anti-SER5 (H14))
1 | COc1ccccc1-c1cc(Nc2ccc(NC(=O)C3CCCN(C)C3)cc2)ncn1 (stereo not drawn) [Compound 87] | b (inhibition between 80 and 50%: b) | b (inhibition between 80 and 50%: b) | b (inhibition between 80 and 50%: b) | a (inhibition greater than 80%: a) | b (inhibition between 80 and 50%: b) | c (inhibition between 50 and 30%: c) | b (inhibition between 80 and 50%: b) | a (inhibition greater than 80%: a) |  |  |  |  |  |  |  |  |  |  | 
2 | CN1CC[C@H](c2c(O)cc(O)c3c(=O)cc(-c4ccccc4Cl)oc23)[C@H](O)C1 [flavopiridol, reference compound] |  |  |  |  |  |  |  |  | inhibits replication |  |  |  |  |  |  |  |  |  | 
3 | COc1ccc(-c2cc(Nc3ccc(NC(=O)c4ccc(N)cc4)cc3)ncn2)cc1 [Compound 6] | c (inhibition between 50 and 30%: c) | b (inhibition between 80 and 50%: b) |  |  |  |  | c (inhibition between 50 and 30%: c) | a (inhibition greater than 80%: a) |  | b (inhibition between 80 and 50%: b) | showed inhibition |  |  |  |  |  |  |  | 
4 | Nc1ccc(C(=O)Nc2ccc(Nc3cc(-c4ccccc4OCc4ccccc4)ncn3)cc2)cc1 [Compound 4] |  |  |  | c (inhibition between 50 and 30%: c) |  |  | a (inhibition greater than 80%: a) | a (inhibition greater than 80%: a) |  | a (inhibition greater than 80%: a) | showed inhibition | less effectively | ~2 |  |  |  |  |  | 
5 | COc1ccccc1-c1cc(Nc2ccc(NC(=O)[C@@H]3CCCCN3)cc2)ncn1 [Compound 30] | c (inhibition between 50 and 30%: c) | b (inhibition between 80 and 50%: b) | b (inhibition between 80 and 50%: b) | a (inhibition greater than 80%: a) |  | c (inhibition between 50 and 30%: c) | b (inhibition between 80 and 50%: b) | a (inhibition greater than 80%: a) | inactive | c (inhibition between 50 and 30%: c) | showed inhibition |  | ~1 | b (inhibition between 80 and 50%: b) | able, to affect | no inhibition was observed | reduction | decreased | did not show any differences
6 | COc1ccccc1-c1cc(Nc2ccc(C(=O)N[C@@H]3CCCC[C@H]3N)cc2)ncn1 (racemic) [Compound 83] | b (inhibition between 80 and 50%: b) | b (inhibition between 80 and 50%: b) | c (inhibition between 50 and 30%: c) | b (inhibition between 80 and 50%: b) |  | b (inhibition between 80 and 50%: b) | b (inhibition between 80 and 50%: b) | a (inhibition greater than 80%: a) |  | c (inhibition between 50 and 30%: c) |  |  |  | b (inhibition between 80 and 50%: b) |  |  |  |  | 
7 | NC(=O)c1ccc(Nc2cc(-c3ccccc3OCc3ccccc3)ncn2)cc1 [Compound 95] | c (inhibition between 50 and 30%: c) |  |  | b (inhibition between 80 and 50%: b) |  |  | b (inhibition between 80 and 50%: b) | a (inhibition greater than 80%: a) |  | a (inhibition greater than 80%: a) |  |  |  | b (inhibition between 80 and 50%: b) |  |  |  |  | 
